Data on 15 compounds can be found in paper PMC8119466, “A screen of FDA-approved drugs identifies inhibitors of protein tyrosine phosphatase 4A3 (PTP4A3 or PRL-3)” (Scientific Reports, 2021).

Structures can show the parent of a compound that is named as a salt.

What all share (format): biochemical
Common to all, as to conditions: FDA-approved drug screen

Experiment [1] has as its target T1, recombinant PRL-3 (Homo sapiens, UniProt O75365).
T1 construct: 6xHis (N, cleaved yes); made in house; host or cells: E. coli One Shot BL21 Star
The experiment can be described thus: In vitro phosphatase assay (DiFMUP hydrolysis), PRL-3. Further: test concentration or dose not given here.

The target in experiment [2] is T2, recombinant PRL-2 (Homo sapiens, UniProt Q12974).
T2 construct: 6xHis (N, cleaved yes); made in house; host or cells: E. coli One Shot BL21 Star
T2 sequence (Q12974 1-167): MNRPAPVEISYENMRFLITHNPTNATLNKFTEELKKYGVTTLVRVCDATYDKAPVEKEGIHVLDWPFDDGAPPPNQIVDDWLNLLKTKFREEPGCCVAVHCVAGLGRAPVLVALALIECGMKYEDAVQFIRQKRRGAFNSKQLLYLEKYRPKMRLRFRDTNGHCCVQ
Kind of experiment: In vitro phosphatase assay (DiFMUP hydrolysis), PRL-2.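 Further: PRL-2 activity read as DiFMUP hydrolysis after 20 min at room temperature with drug, enzyme first pre-reduced at 4 °C for 20 min.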

Experiment [3] deals with T3, recombinant PRL-1 (Homo sapiens, UniProt Q93096).
T3 construct: 6xHis (N, cleaved yes); made in house; host or cells: E. coli One Shot BL21 Star
T3 sequence (Q93096 1-173): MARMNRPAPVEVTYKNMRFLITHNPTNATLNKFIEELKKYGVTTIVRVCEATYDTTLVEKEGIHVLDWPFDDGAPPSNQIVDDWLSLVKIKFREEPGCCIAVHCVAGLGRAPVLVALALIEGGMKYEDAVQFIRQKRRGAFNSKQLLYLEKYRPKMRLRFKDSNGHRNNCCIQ
The experiment can be described thus: In vitro phosphatase assay (DiFMUP hydrolysis), PRL-1. Further: test concentration or dose not given here.

T1 sequence (O75365 whole entry): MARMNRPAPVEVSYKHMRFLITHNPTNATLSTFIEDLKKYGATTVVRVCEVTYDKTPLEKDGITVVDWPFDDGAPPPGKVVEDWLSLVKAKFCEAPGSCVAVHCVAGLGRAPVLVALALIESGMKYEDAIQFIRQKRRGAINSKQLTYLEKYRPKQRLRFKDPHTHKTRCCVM

For `Cc1[nH]c2ccccc2c1CCNCc1ccc(/C=C/C(=O)NO)cc1` [Panobinostat (LBH589)], the “% Phosphatase Activity (compared to DMSO) PRL-3” value in experiment [1] (compared to DMSO) is given as 83%. The “% Phosphatase Activity (compared to DMSO) PRL-2” value in experiment [2] (compared to DMSO) was 102%. Further, in experiment [3] (compared to DMSO), the “% Phosphatase Activity (compared to DMSO) PRL-1” value is on record as 95%.
The like results for `[I-].[K+]` [Potassium Iodide] were, in that order, 87%, 91% and 94%.
As to `Nc1cccc2c1C(=O)N(C1CCC(=O)NC1=O)C2=O` (stereo not drawn) [Pomalidomide], the “% Phosphatase Activity (compared to DMSO) PRL-3” value in experiment [1] (compared to DMSO) came to 204%. The “% Phosphatase Activity (compared to DMSO) PRL-2” value in experiment [2] (compared to DMSO) came to 248%. Also, in experiment [3] (compared to DMSO), the “% Phosphatase Activity (compared to DMSO) PRL-1” value turned out to be 264%.
In the case of Teneligliptin hydrobromide, in experiment [1] (activity compared to DMSO), the “% Phosphatase Activity (compared to DMSO) PRL-3” value came out at 90%. Moreover, the “% Phosphatase Activity (compared to DMSO) PRL-2” value in experiment [2] (activity compared to DMSO) is recorded as 100%. In addition, the “% Phosphatase Activity (compared to DMSO) PRL-1” value in experiment [3] (activity compared to DMSO) was 95%.
With `CCCC(CCC)C(=O)O` [Divalproex Sodium], the “% Phosphatase Activity (compared to DMSO) PRL-3” value in experiment [1] (compared to DMSO) is given as 77%. Also, the “% Phosphatase Activity (compared to DMSO) PRL-2” value in experiment [2] (compared to DMSO) was 94%. Also, the “% Phosphatase Activity (compared to DMSO) PRL-1” value in experiment [3] (compared to DMSO) was determined as 105%.
`C[C@H]1[C@H](NC(=O)/C(=N\OC(C)(C)C(=O)O)c2csc(N)n2)C(=O)N1S(=O)(=O)O` [Aztreonam]: the “% Phosphatase Activity (compared to DMSO) PRL-3” value in experiment [1] (compared to DMSO) was 76%. For the same compound, the “% Phosphatase Activity (compared to DMSO) PRL-2” value in experiment [2] (compared to DMSO) is 88%. Further, the “% Phosphatase Activity (compared to DMSO) PRL-1” value in experiment [3] (compared to DMSO) is listed as 97%.
With `CCOC(=O)c1c(C)n(C)c2ccc(O)cc12` [Mecarbinate], the “% Phosphatase Activity (compared to DMSO) PRL-3” value in experiment [1] (compared to DMSO) was 77%. Also, in experiment [2] (compared to DMSO), the “% Phosphatase Activity (compared to DMSO) PRL-2” value is on record as 100%. Moreover, the “% Phosphatase Activity (compared to DMSO) PRL-1” value in experiment [3] (compared to DMSO) amounted to 108%.
Take `COc1cnc(NS(=O)(=O)c2ccc(N)cc2)nc1` [Sulfameter]: the “% Phosphatase Activity (compared to DMSO) PRL-3” value in experiment [1] (activity compared to DMSO) is listed as 91%. The “% Phosphatase Activity (compared to DMSO) PRL-2” value in experiment [2] (activity compared to DMSO) is recorded as 109%. Moreover, the “% Phosphatase Activity (compared to DMSO) PRL-1” value in experiment [3] (activity compared to DMSO) was found to be 106%.
For `CC[C@H]1CN2CC[C@H]1C[C@@H]2[C@@H](O)c1ccnc2ccc(OC)cc12` [Hydroquinidine], the “% Phosphatase Activity (compared to DMSO) PRL-3” value in experiment [1] (compared to DMSO) stood at 92%. In experiment [2] (compared to DMSO), the “% Phosphatase Activity (compared to DMSO) PRL-2” value came out at 120%. Besides, the “% Phosphatase Activity (compared to DMSO) PRL-1” value in experiment [3] (compared to DMSO) was 105%.
The matching figures for `Cc1cccc(Nc2ccccc2C(=O)O)c1C` [Mefenamic Acid]: 82%, 107% and 98%.
Take `CN1CCN(CCOc2cc(OC3CCOCC3)c3c(Nc4c(Cl)ccc5c4OCO5)ncnc3c2)CC1` [Saracatinib (AZD0530)]: the “% Phosphatase Activity (compared to DMSO) PRL-3” value in experiment [1] (compared to DMSO) is reported as 79%. Further, in experiment [2] (compared to DMSO), the “% Phosphatase Activity (compared to DMSO) PRL-2” value is 98%. Also, the “% Phosphatase Activity (compared to DMSO) PRL-1” value in experiment [3] (compared to DMSO) was 99%.
Regarding `CC/C(=C(\c1ccccc1)c1ccc(OCCN(C)C)cc1)c1ccccc1` [Tamoxifen Citrate], the “% Phosphatase Activity (compared to DMSO) PRL-3” value in experiment [1] (activity compared to DMSO) was 95%. Besides, in experiment [2] (activity compared to DMSO), the “% Phosphatase Activity (compared to DMSO) PRL-2” value is on record as 91%. Moreover, the “% Phosphatase Activity (compared to DMSO) PRL-1” value in experiment [3] (activity compared to DMSO) came to 84%.
Turning to `CC[C@@H](CO)NCCN[C@@H](CC)CO` [Ethambutol HCl], the “% Phosphatase Activity (compared to DMSO) PRL-3” value in experiment [1] (compared to DMSO) is listed as 93%. In addition, in experiment [2] (compared to DMSO), the “% Phosphatase Activity (compared to DMSO) PRL-2” value is 111%. Besides, the “% Phosphatase Activity (compared to DMSO) PRL-1” value in experiment [3] (compared to DMSO) is 99%.
Turning to `CCC(COC(=O)c1cc(OC)c(OC)c(OC)c1)(c1ccccc1)N(C)C` (stereo not drawn) [Trimebutine], in experiment [1] (activity compared to DMSO), the “% Phosphatase Activity (compared to DMSO) PRL-3” value is given as 84%. Further, in experiment [2] (activity compared to DMSO), the “% Phosphatase Activity (compared to DMSO) PRL-2” value was found to be 106%. For the same compound, in experiment [3] (activity compared to DMSO), the “% Phosphatase Activity (compared to DMSO) PRL-1” value amounted to 90%.
On to `Cl.N=C(N)NCCC[C@H](N)C(=O)O` [L-Arginine HCl (L-Arg)], for which the “% Phosphatase Activity (compared to DMSO) PRL-3” value in experiment [1] (compared to DMSO) is given as 104%. The “% Phosphatase Activity (compared to DMSO) PRL-2” value in experiment [2] (compared to DMSO) is reported as 91%. In addition, the “% Phosphatase Activity (compared to DMSO) PRL-1” value in experiment [3] (compared to DMSO) came to 82%.
